Counter-ions that a name gives are not always drawn. Like-named read-outs stand apart in the source and are kept apart here. Marks after values point to notes of the source that are not given here.
Legend:
[1] = system: advanced glycation end-products (AGEs) formation in BSA/methylglyoxal (MGO) model system; assay: Inhibition of AGEs formation, BSA/MGO model system; format: biochemical, bovine; conditions: for IC50: read-out: IC50 against AGEs formation, BSA-MGO System; for anti-AGEs activity higher in relation to AG: relative to AG
Description: (§1) The inhibitory activity against AGEs formation was performed in the bovine serum albumin (BSA)/glucose and BSA/methylglyoxal (MGO) model systems as described recently by Zielińska et al.. Standards of OR, hOR, VT, iVT, and Q were initially dissolved in a small volume of DMSO and then in phosphate buffer (0.1 M, pH 7.4) to obtain 1 mM (DMSO/phosphate buffer; 1:5; v/v). The positive control aminoguanidine (1 mM AG) was used. The percentage (%) of inhibition was obtained from three repetitions (n = 3). The IC50, indicating the concentration of the compound at which formation of AGEs is inhibited by 50%, was determined through linear regression analysis.

[2] = system: advanced glycation end-products (AGEs) formation in BSA/glucose model system; assay: Inhibition of AGEs formation, BSA/glucose model system; format: biochemical, bovine; conditions: for IC50: read-out: IC50 against AGEs formation, BSA-Glucose System
Description: as §1

[3] = vs. NHE; cited from earlier work
[4] = target: T1, acetylcholinesterase (AChE) (Homo sapiens, UniProt P22303); assay: Acetylcholinesterase inhibitory activity; format: biochemical; conditions: for AChE inhibitory activity, times lower than that of galanthamine: relative to galanthamine
T1 construct: purchased Sigma Chemical Co. (Poznań, Poland)
Description: The AChE inhibitory activity was evaluated following the methodology adapted from Eldeen et al., and details of the procedure were provided recently by Zielińska et al.. […] All measurements were conducted using a microplate reader (Tecan Infinite M1000 PRO, TK Biotech, Warsaw, Poland). […] At least 3 replicates for each standard solution were carried out.

[5] = Differential pulse voltammetry: anodic peak potentials and antioxidant activity; format: physicochemical; conditions: DPV; for Anodic Peak Potential Epa (mV) Epa1: glassy carbon electrode; for Antioxidant Activity (mM Trolox): area under anodic peaks, Trolox regression; for antioxidant activity lower in relation to the antioxidant activity of Q: relative to quercetin
Description: Electrochemical measurements were performed at room temperature (25 ± 2 °C) in a small-volume electrochemical cell using a potentiostat type SP-240 (BioLogic Science Instruments, Seyssinet-Pariset, France) controlled by EC-Lab V11.36 software. Differential pulse voltammograms were obtained with a pulse amplitude of 100 mV, a potential step of 5 mV, and a modulation time of 0.2 s. Four scans were registered for each sample, and the reported data correspond to the average of at least three replicates. The working electrode was a glassy carbon electrode, GCE (3 mm diameter, BASi M-2012, and the auxiliary and reference electrodes were platinum wire (BASi MW-1033) and Ag/AgCl (3 M KCl, BASi-MW-2052). All potentials are quoted against the used reference electrode. Before each scan, the surface of the glassy carbon electrode was polished on a polishing cloth with 0.05 μm alumina paste and ultrasonically rinsed in deionized water. After polishing, the electrode was washed with ultrapure water and dried with absorbent paper. DPV measurements were carried out in a standard solution of flavone C-monoglucosides and quercetin at a final concentration of 250 μM. Before measurements, the standard solutions were diluted in 0.2 M acetate-acetic buffer (in 80% methanol) at pH 5.0 (v/v: 1:1). Buffer solution also served as a supporting electrolyte. For the test purpose, from registered DPV voltammograms, the anodic oxidation potentials (Epa) in mV and the integrated area under anodic peaks in μA were determined.

[6] = target: T2, angiotensin-converting enzymes (ACE) from porcine kidneys (Sus scrofa, UniProt F1RRW5); assay: Angiotensin-I-converting enzyme inhibitory activity (fluorometric); format: biochemical
T2 construct: angiotensin-converting enzymes (ACE) from porcine kidneys (EC 3.4.15.1); purchased Sigma (Sigma Chemical Company, Saint Louis, MO, USA); host or cells: porcine kidney
T2 sequence (F1RRW5 34-1309): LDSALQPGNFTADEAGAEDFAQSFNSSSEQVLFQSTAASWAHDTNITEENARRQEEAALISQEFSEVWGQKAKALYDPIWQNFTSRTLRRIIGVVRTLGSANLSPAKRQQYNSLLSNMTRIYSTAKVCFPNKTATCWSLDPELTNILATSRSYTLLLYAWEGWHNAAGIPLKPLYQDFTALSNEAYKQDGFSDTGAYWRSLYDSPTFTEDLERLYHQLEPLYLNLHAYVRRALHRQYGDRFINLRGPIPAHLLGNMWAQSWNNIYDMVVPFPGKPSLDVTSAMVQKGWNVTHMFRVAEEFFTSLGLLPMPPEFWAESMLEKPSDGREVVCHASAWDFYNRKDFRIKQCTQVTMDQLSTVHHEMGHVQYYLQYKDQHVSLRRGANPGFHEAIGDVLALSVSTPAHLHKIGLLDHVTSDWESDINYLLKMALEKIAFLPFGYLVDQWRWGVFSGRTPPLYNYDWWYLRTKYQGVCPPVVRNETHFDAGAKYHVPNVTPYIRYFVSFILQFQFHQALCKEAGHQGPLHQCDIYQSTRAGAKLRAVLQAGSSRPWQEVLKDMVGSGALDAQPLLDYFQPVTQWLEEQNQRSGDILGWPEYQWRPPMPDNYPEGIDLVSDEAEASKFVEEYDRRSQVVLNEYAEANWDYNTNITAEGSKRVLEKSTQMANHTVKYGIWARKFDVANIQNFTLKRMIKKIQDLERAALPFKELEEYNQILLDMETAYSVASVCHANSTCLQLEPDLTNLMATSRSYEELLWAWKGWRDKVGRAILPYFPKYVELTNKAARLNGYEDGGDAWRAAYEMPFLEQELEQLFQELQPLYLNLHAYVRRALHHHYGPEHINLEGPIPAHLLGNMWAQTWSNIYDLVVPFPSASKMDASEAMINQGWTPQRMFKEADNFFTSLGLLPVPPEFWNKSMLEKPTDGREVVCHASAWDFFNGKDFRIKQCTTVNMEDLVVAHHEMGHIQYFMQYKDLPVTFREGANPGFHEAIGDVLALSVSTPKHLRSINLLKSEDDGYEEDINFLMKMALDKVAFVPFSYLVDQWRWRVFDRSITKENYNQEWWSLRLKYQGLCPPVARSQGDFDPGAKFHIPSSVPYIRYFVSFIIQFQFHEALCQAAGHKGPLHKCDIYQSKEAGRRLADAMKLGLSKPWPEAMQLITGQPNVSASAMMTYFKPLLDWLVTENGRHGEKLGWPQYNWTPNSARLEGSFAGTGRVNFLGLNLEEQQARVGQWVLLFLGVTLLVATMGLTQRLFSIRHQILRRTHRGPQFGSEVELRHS
Description: Angiotensin converting enzyme (ACE) inhibitory activity was performed according to the method of Sentandreu and Toldra. The details of the procedure were described recently by Zielińska et al.. Standards of OR (luteolin-8-C-glucoside), hOR (luteolin-6-C-glucoside), VT (apigenin-8-C-glucoside), iVT (apigenin-6-C-glucoside), and Q (quercetin) were dissolved in 80% methanol. Each standard was diluted to various concentrations using deionized water. The multiscan microplate fluorometer (Tecan Infinite M1000 PRO, TK Biotech, Warsaw, Poland) was used, and the IC50 value indicating the sample concentration at which 50% inhibition of ACE activity was determined by using linear regression analysis of logarithmic plots. At least 3 replicates for each standard solution were conducted.

[7] = 0.25 mM standard solutions, acetate-acetic buffer pH 5.0 in 80% methanol, vs. Ag/AgCl
[8] = ACE from porcine kidneys, linear regression, read-out: IC50 for ACE inhibition

T1 sequence (P22303 32-614, species assumed): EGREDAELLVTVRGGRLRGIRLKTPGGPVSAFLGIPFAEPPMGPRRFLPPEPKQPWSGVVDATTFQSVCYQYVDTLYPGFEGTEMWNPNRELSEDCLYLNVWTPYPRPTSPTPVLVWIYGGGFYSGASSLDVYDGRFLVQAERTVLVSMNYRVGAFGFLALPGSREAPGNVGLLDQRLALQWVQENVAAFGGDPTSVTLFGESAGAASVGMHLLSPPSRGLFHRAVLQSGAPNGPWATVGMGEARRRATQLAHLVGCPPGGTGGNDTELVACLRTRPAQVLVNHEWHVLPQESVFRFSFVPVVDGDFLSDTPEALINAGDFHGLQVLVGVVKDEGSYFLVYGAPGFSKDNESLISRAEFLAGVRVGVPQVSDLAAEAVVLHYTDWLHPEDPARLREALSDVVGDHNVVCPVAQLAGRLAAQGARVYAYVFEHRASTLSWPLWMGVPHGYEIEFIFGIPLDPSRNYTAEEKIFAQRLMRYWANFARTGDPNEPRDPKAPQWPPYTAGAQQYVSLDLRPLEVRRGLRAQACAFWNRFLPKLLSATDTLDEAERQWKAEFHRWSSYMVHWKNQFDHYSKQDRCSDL

Structure (SMILES) | IC50 [1] | IC50 [2] | anti-AGEs activity higher in relation to AG [1] | IC50 [4] | Anodic Peak Potential Epa (mV) Epa1 [5, 7] | Anodic Peak Potential Epa (mV) Epa2 [5, 7] | Antioxidant Activity (mM Trolox) [5] | IC50 [6, 8] | further results
N=C(N)NN [Aminoquanidine (AG), aminoguanidine hydrochloride, reference compound] | 531 ± 28 µM | 432 ± 36 µM |  |  |  |  |  |  | 
N[C@@H](CCC(=O)N[C@@H](CS)C(=O)NCC(=O)O)C(=O)O [Glutathione (GSH), Glutathione] |  |  |  |  |  |  |  |  | standard redox potential [3]: around −0.23 V
O=c1cc(-c2ccc(O)c(O)c2)oc2cc(O)c([C@@H]3O[C@H](CO)[C@@H](O)[C@H](O)[C@H]3O)c(O)c12 [Homoorientin (hOR), 3′,4′,5,7-tetrahydroxyflavone-6-glucoside] | 391 ± 22 µM | 14 ± 8 µM | 26% | 0.581 ± 0.096 µM | 336 ± 5 ^b mV | 960 ± 9 ^b mV | 3.24 ± 0.15 ^b mM Trolox | 114 ± 1.23 µM | anti-AGEs activity times higher in relation to Q ([2]; relative to Q): ~17 times; anti-AGEs activity times higher in relation to VT ([2]; relative to VT): about 18 times; anti-AGEs activity times higher in relation to iVT ([2]; relative to iVT): ~15 times; AChE inhibitory activity, times lower than that of galanthamine [4]: 14–20 times; Anodic Peak Potential Epa (mV) Epa1 ([5]; 0.25 mM standard solutions, acetate-acetic buffer pH 5.0 in 80% methanol, vs. Ag/AgCl, listed as hOR): 336 mV; antioxidant activity lower in relation to the antioxidant activity of Q [5]: 15%
O=c1cc(-c2ccc(O)cc2)oc2cc(O)c([C@@H]3O[C@H](CO)[C@@H](O)[C@H](O)[C@H]3O)c(O)c12 [Isovitexin (iVT), 4′,5,7-trihydroxyflavone-6-glucoside] | 341 ± 20 µM | 214 ± 11 µM |  | 1.08 ± 0.011 µM | 926 ± 8 ^a mV |  | 1.06 ± 0.07 ^c mM Trolox | 161 ± 3.27 µM | Anodic Peak Potential Epa (mV) Epa1 ([5]; 0.25 mM standard solutions, acetate-acetic buffer pH 5.0 in 80% methanol, vs. Ag/AgCl, listed as iVT): 926 mV
O=c1cc(-c2ccc(O)c(O)c2)oc2c([C@@H]3O[C@H](CO)[C@@H](O)[C@H](O)[C@H]3O)c(O)cc(O)c12 [Orientin (OR), 3′,4′,5,7-tetrahydroxyflavone-8-glucoside] | 326 ± 19 µM | 73 ± 5 µM | 39% |  | 345 ± 6 ^b mV | 1020 ± 9 ^a mV | 3.00 ± 0.14 ^b mM Trolox |  | IC50 ([4]; linear regression, read-out: IC50 for AChE inhibition): 0.868 ± 0.088 µM; AChE inhibitory activity, times lower than that of galanthamine [4]: 14–20 times; Anodic Peak Potential Epa (mV) Epa1 ([5]; 0.25 mM standard solutions, acetate-acetic buffer pH 5.0 in 80% methanol, vs. Ag/AgCl, listed as OR): 345 mV; antioxidant activity lower in relation to the antioxidant activity of Q [5]: 21%; IC50 [6]: 122 ± 2.66 µM; ACE inhibitory activity lower as compared to hOR ([6]; relative to hOR): 6.9%
O=c1c(O)c(-c2ccc(O)c(O)c2)oc2cc(O)cc(O)c12 [Quercetin (Q), 3,3′,4′,5,7-pentahydroxyflavone, reference compound] | 466 ± 17 µM | 243 ± 12 µM | 12% | 1.37 ± 0.077 µM | 255 ± 7 ^c mV | 510 ± 8 ^c mV | 3.81 ± 0.19 ^a mM Trolox |  | Anodic Peak Potential Epa (mV) Epa1 ([5]; 0.25 mM standard solutions, acetate-acetic buffer pH 5.0 in 80% methanol, vs. Ag/AgCl, listed as Q): 255 mV; Anodic Peak Potential Epa (mV) Epa3 [5, 7]: 1060 ± 10 mV
O=c1cc(-c2ccc(O)cc2)oc2c([C@@H]3O[C@H](CO)[C@@H](O)[C@H](O)[C@H]3O)c(O)cc(O)c12 [Vitexin (VT), 4′,5,7-trihydroxyflavone-8-glucoside] | 437 ± 17 µM | 255 ± 16 µM | 18% | 1.28 ± 0.089 µM | 925 ± 8 ^a mV |  | 0.93 ± 0.07 ^c mM Trolox | 135 ± 2.45 µM | Anodic Peak Potential Epa (mV) Epa1 ([5]; 0.25 mM standard solutions, acetate-acetic buffer pH 5.0 in 80% methanol, vs. Ag/AgCl, listed as VT): 925 mV; ACE inhibitory activity higher in comparison to iVT ([6]; relative to iVT): 19.6%
